This is an account of results in paper PMC7594054, “Design, Synthesis and In Vitro Experimental Validation of Novel TRPV4 Antagonists Inspired by Labdane Diterpenes” (Marine Drugs, 2020).

Entries after “also recorded” stand apart in the source; their conditions may differ. Where only a bound is given, the exact number is not on record here.

The subject of one series is A549 cells. Briefly: MTT cytotoxicity assay, A549 cells. The series is classed as cell-based, human. To be noted: A549 cells, 1, 5 and 25 μM, 24 h. How it is done: (§1) HeLa and A549 cells were seeded at 2 × 10^3 cells/cm^2 density in 24-well plastic plates. One day after plating, compounds 6 and 18 were added to the culture medium for 24 h. Cell viability was evaluated with the 3-(4,5-dimethylthiazol-2-yl)-2,5-diphenyltetrazolium bromide (MTT; 0.5 mg/mL; Sigma-Aldrich, Milan, Italy) reduction assay, and formazan salt formation upon MTT reduction by the mitochondria of living cells was detected spectrophotometrically at 595 nm according to published procedures.
(§2) Figure 2 Cell viability measured in HeLa and A549 cells treated for 24 h with increasing concentration of compound 6 (panel A, C) and 18 (panel B, D). Bar graphs show cell viability measured using the 3-(4,5-dimethylthiazol-2-yl)-2,5-diphenyltetrazolium bromide (MTT) assay. Data are expressed as optical density (OD) at 595 nm, normalized to control (vehicle). The bar is the standard error of the mean (SEM) on 3 independent determinations. Statistically significant differences were accepted when the p-value was at least ≤0.05.
On the technique in general: Tetrazolium assays rely on reduction of a dye to a coloured formazan, in cell work by metabolically active cells.

Another series deals with HeLa cells. Briefly: MTT cytotoxicity assay, HeLa cells. In kind it is cell-based, human. To be noted: HeLa cells, 1, 5 and 25 μM, 24 h. As for the experimental part:
as §1, §2

The next series deals with T1, rTRPV4 (Rattus norvegicus, UniProt Q9ERZ8).
T1 construct: expressed in transfected cells; host or cells: HEK-293
T1 sequence (Q9ERZ8 whole entry): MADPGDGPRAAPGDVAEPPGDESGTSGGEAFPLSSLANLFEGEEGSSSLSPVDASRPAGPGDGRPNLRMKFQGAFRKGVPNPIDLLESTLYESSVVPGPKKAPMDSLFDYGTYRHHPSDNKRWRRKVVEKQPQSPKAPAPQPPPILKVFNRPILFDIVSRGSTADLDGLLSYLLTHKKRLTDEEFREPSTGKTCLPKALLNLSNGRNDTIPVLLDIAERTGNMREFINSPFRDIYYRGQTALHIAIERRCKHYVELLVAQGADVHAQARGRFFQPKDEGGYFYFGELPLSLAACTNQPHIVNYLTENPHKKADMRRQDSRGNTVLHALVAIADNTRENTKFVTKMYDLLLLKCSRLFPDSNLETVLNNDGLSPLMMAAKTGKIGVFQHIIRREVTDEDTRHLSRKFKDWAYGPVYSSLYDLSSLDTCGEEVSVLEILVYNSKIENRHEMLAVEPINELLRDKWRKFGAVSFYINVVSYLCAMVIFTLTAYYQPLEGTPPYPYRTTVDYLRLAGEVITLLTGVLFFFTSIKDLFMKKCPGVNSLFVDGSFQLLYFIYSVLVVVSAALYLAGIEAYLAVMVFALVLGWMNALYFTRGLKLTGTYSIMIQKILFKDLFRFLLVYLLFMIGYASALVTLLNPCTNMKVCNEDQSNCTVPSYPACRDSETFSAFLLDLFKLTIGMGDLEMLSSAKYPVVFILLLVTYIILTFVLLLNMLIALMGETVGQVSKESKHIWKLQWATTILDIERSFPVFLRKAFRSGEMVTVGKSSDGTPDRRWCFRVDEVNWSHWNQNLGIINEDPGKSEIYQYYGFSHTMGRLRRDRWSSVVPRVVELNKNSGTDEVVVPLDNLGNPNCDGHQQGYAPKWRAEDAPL
Briefly: TRPV4 calcium influx assay (Fluo-4) in HEK-293 cells overexpressing rat recombinant TRPV4. The series is classed as cell-based. To be noted: for IC50: against the effect of GSK1016790A (10 nM) after a 5-min pre-incubation, read-out: IC50 inh. TRPV4; for Efficacy %: as percent of the effect of ionomycin (4 µM), HEK-293 cells overexpressing rTRPV4, means ± SEM, n >= 3; for EC50: activation, half-maximal increase in [Ca2+]i, NA = not active (efficacy lower than 10%), read-out: Potency EC50. From the text:
The interaction properties of all homodrimane-derived compounds 1–16, 18–19, and 22–25 with either TRPV type-4 or type-1 were studied in human embryonic kidney (HEK)-293 cells overexpressing either the rat recombinant type-4 (rTRPV4), which shares with the human orthologue ~95% of sequence identity, and the human recombinant type-1 (hTRPV1) channel, evaluating the changes in intracellular calcium levels. […] Cell fluorescence before and after the addition of various concentrations of test compounds was measured normalizing the effects against the response to ionomycin (4 μM). […] Dose-response curve fitting (sigmoidal dose-response variable slope) and parameter estimation were performed with Graph-Pad Prism8® (GraphPad Software Inc., San Diego, CA, USA). All determinations were performed at least in triplicate.

The next series concerns the target T2, hTRPV1 (Homo sapiens, UniProt Q8NER1).
T2 construct: expressed in transfected cells; host or cells: HEK-293
Kind of series: TRPV1 calcium influx assay (Fluo-4) in HEK-293 cells overexpressing human recombinant TRPV1. The series is classed as cell-based. To be noted: for EC50: activation, NA = not active (efficacy lower than 10%), read-out: Potency EC50; for Efficacy %: as percent of the effect of ionomycin (4 µM), HEK-293 cells overexpressing hTRPV1, means ± SEM, N >= 3; for IC50: read-out: IC50 inh TRPV1.

For another series, the system named is TRPV4. To be noted: read-out: EC50 (TRPV4 agonist); cited from earlier work.

T2 sequence (Q8NER1 whole entry): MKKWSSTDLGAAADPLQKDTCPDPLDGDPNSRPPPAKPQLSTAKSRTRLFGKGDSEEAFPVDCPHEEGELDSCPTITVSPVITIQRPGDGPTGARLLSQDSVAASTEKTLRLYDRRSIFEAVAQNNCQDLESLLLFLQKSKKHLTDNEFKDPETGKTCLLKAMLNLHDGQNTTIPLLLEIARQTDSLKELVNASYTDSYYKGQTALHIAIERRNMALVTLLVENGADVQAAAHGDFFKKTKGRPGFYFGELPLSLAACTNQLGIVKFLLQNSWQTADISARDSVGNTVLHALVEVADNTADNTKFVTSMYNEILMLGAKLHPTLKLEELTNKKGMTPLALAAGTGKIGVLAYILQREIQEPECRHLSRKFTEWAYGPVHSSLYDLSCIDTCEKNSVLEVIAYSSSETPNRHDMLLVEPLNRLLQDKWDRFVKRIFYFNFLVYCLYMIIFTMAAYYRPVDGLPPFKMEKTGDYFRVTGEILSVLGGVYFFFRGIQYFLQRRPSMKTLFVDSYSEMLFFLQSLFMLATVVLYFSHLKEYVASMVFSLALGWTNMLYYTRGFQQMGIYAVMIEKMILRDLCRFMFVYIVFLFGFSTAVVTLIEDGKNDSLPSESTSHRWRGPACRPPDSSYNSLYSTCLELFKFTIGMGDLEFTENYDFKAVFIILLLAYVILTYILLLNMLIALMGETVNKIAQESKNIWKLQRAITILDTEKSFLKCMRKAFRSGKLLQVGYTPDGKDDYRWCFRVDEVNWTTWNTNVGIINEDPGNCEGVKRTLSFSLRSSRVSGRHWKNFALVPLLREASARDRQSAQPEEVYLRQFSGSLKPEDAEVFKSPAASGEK

As a reminder, the IC50 is the concentration needed to halve the response being measured. In the case of `CC1(C)CCC[C@]2(C)[C@@H](CC(=O)OCc3ccccc3)[C@](C)(O)CC[C@@H]12` [Compound 18, Benzyl 2-((1R,2R,4aS,8aS)-2-hydroxy-2,5,5,8a-tetramethyldecahydronaphthalen-1-yl)acetate], the “cytotoxic effect (cell viability, MTT)” value in the series with A549 cells is recorded as “neither compound caused statistically-significant cytotoxic effects at any tested concentration”. Moreover, in the series on HeLa cells, the “cytotoxic effect (cell viability, MTT)” value is “neither compound caused statistically-significant cytotoxic effects at any tested concentration”. Further, on rTRPV4, the “activity on rTRPV4 in words” value is “potent and selective TRPV4 antagonists”; the IC50 came out at 5.41 ± 0.07 µM; the Efficacy % is reported as less than 10%.
Usually EC50 stands for the concentration needed to bring the measured effect to its halfway point. What is called melting point is the temperature, or range, at which the solid turns liquid. Regarding `CC1(C)CCC[C@]2(C)[C@@H](CC(=O)NCc3ccc(F)cc3)[C@](C)(O)CC[C@@H]12` [Compound 7, N-(4-fluorobenzyl)-2-((1R,2R,4aS,8aS)-2-hydroxy-2,5,5,8a-tetramethyldecahydronaphthalen-1-yl)acetamide], the melting point is 135 to 136 °C. Further, at hTRPV1, the EC50 amounted to 9.9 ± 0.1 µM, the Efficacy % is 24.5± 0.2% and the IC50 is greater than 50 µM. Moreover, on rTRPV4, the EC50 is 13.4 ± 2.6 µM, the IC50 amounted to 16.9 ± 0.8 µM and the Efficacy % amounted to 15.8 ± 0.8%.
Consider `CC1(C)CCC[C@]2(C)[C@@H](CC(=O)NCCc3ccc(Cl)cc3)[C@](C)(O)CC[C@@H]12` [Compound 11, N-(4-chlorophenethyl)-2-((1R,2R,4aS,8aS)-2-hydroxy-2,5,5,8a-tetramethyldecahydronaphthalen-1-yl)acetamide], for which the figures for the IC50 on hTRPV1 and at rTRPV4 were greater than 100 µM and 7 ± 0.1 µM, respectively. Moreover, the Efficacy % at rTRPV4 is listed as less than 10%.
For `CC1(C)CCC[C@]2(C)[C@@H](CC(=O)NCc3ccc(Cl)cc3)[C@](C)(O)CC[C@@H]12` [Compound 5, N-(4-chlorobenzyl)-2-((1R,2R,4aS,8aS)-2-hydroxy-2,5,5,8a-tetramethyldecahydronaphthalen-1-yl)acetamide], in that order: greater than 100 µM, 7.7 ± 0.3 µM and less than 10%.
As for `CC1(C)CCC[C@]2(C)[C@@H](CCOCc3cccc(Cl)c3)[C@](C)(O)CC[C@@H]12` [Compound 25, (1R,2R,4aS,8aS)-1-(2-((3-Chlorobenzyl)oxy)ethyl)-2,5,5,8a-tetramethyldecahydronaphthalen-2-ol], on hTRPV1, the “activity on hTRPV1 in words” value is “inactive” and the IC50 is greater than 100 µM. Also, at rTRPV4, the “activity on rTRPV4 in words” value was “inactive”, the IC50 was greater than 100 µM and the Efficacy % is given as less than 10%.
Consider `CC1(C)CCC[C@]2(C)[C@H]3CC(=O)O[C@]3(C)CC[C@@H]12` [Scd, (+)-Sclareolide, reference compound], for which, at hTRPV1, the “activity on hTRPV1 in words” value is reported as “unable to modulate either channel”, the Efficacy % is given as 12.6 ± 0.5% and the IC50 is greater than 100 µM. Moreover, on rTRPV4, the “activity on rTRPV4 in words” value was “unable to modulate either channel; also recorded: inactive”, the EC50 is greater than 10 µM, the IC50 was greater than 100 µM and the Efficacy % turned out to be 11.3 ± 0.7%.
For the compound `CC1(C)CCC[C@]2(C)[C@@H](CC(=O)Nc3ccccc3)[C@](C)(O)CC[C@@H]12` [Compound 1, 2-((1R,2R,4aS,8aS)-2-Hydroxy-2,5,5,8a-tetramethyldecahydronaphthalen-1-yl)-N-phenylacetamide], on hTRPV1, the Efficacy % turned out to be 33.6 ± 0.8% and the IC50 was greater than 100 µM. Further, at rTRPV4, the IC50 is greater than 100 µM and the Efficacy % is reported as less than 10%.
As for `COC(=O)CC1C(C)(O)CCC2C(C)(C)CCCC21C` (stereo not drawn) [Compound 20], on hTRPV1, the “activity on hTRPV1 in words” value was “inactive” and the IC50 was greater than 100 µM. Also, on rTRPV4, the “activity on rTRPV4 in words” value was “inactive”, the half-inhibitory concentration (IC50) is greater than 100 µM and the Efficacy % is reported as less than 10%.
As to `CC1(C)CCCC2(C)C1CCC(C)(O)C2CCO` (stereo not drawn) [Compound 21], at hTRPV1, the “activity on hTRPV1 in words” value is reported as “unable to modulate either channel” and the IC50 is greater than 100 µM. For the same compound, at rTRPV4, the “activity on rTRPV4 in words” value is “unable to modulate either channel; also recorded: inactive”, the IC50 was greater than 100 µM and the Efficacy % is given as less than 10%.
In turn, `CC1(C)CCC[C@]2(C)[C@@H](CCOC(=O)/C=C/c3ccc4c(c3)OCO4)[C@](C)(O)CC[C@@H]12` [Compound 23, 2-((1R,2R,4aS,8aS)-2-hydroxy-2,5,5,8a-tetramethyldecahydronaphthalen-1-yl)ethyl (E)-3-(benzo[d][1,3]dioxol-5-yl)acrylate] returned a melting point of 115 to 116 °C. Besides, on hTRPV1, the IC50 was greater than 100 µM. At rTRPV4, the IC50 was greater than 100 µM and the Efficacy % is listed as less than 10%.
With `CC1(C)CCC[C@]2(C)[C@@H](CC(=O)Nc3ccccc3-n3cccc3)[C@](C)(O)CC[C@@H]12` [Compound 3, N-(2-(1H-pyrrol-1-yl)phenyl)-2-((1R,2R,4aS,8aS)-2-hydroxy-2,5,5,8a-tetramethyldecahydronaphthalen-1-yl)acetamide], at hTRPV1, the 50% effective concentration (EC50) was 4.7 ± 0.4 µM, the Efficacy % is 32.0 ± 1.2% and the IC50 was greater than 100 µM. Also, on rTRPV4, the “activity on rTRPV4 in words” value was “good rTRPV4 agonist”, the concentration giving a half-maximal response (EC50) amounted to 1.1 ± 1 µM, the IC50 was 6 ± 0.1 µM and the Efficacy % is reported as 14.6 ± 1.5%.
As to `C=C1CC[C@@H]2[C@](C)(CO)[C@H](O)CC[C@@]2(C)[C@@H]1/C=C/C1=CC(C(C[C@@H]2C(=C)CC[C@@H]3[C@](C)(CO)[C@H](O)CC[C@]32C)C2=CCOC2=O)OC1=O` (stereo partly drawn) [bisandrographolide A], in the series on TRPV4, the EC50 was 0.79 to 0.95 µM.
Consider `CC1(C)CCC[C@]2(C)[C@@H](CCOC(=O)c3ccc4c(c3)OCO4)[C@](C)(O)CC[C@@H]12` [Compound 22, 2-((1R,2R,4aS,8aS)-2-Hydroxy-2,5,5,8a-tetramethyldecahydronaphthalen-1-yl)ethyl Benzo[d][1,3]dioxole-5-carboxylate], for which the melting point is 155 to 156 °C. The half-maximal inhibitory concentration (IC50) on hTRPV1 was greater than 100 µM. At rTRPV4, the Efficacy % is less than 10%.
Take `CC1(C)CCC[C@]2(C)[C@@H](CC(=O)NCCc3cccc(F)c3)[C@](C)(O)CC[C@@H]12` [Compound 13, N-(3-fluorophenethyl)-2-((1R,2R,4aS,8aS)-2-hydroxy-2,5,5,8a-tetramethyldecahydronaphthalen-1-yl)acetamide]: on hTRPV1, the Efficacy % was 20.8 ± 1.6% and the IC50 was greater than 50 µM. For the same compound, on rTRPV4, the IC50 stood at 11.9 ± 0.4 µM and the Efficacy % was less than 10%.
Regarding `COc1cccc(CNC(=O)C[C@@H]2[C@@]3(C)CCCC(C)(C)[C@@H]3CC[C@@]2(C)O)c1` [Compound 9, 2-((1R,2R,4aS,8aS)-2-hydroxy-2,5,5,8a-tetramethyldecahydronaphthalen-1-yl)-N-(3 methoxybenzyl)acetamide], the IC50 on hTRPV1 is greater than 100 µM. Further, at rTRPV4, the IC50 amounted to 18.1 ± 0.2 µM and the Efficacy % is recorded as less than 10%.
On to `CC1(C)CCC[C@]2(C)[C@@H](CC(=O)NCc3ccccc3)[C@](C)(O)CC[C@@H]12` [Compound 4, N-benzyl-2-((1R,2R,4aS,8aS)-2-hydroxy-2,5,5,8a-tetramethyldecahydronaphthalen-1-yl)acetamide], for which, on hTRPV1, the Efficacy % is on record as 36.8 ± 0.2%. For the same compound, at rTRPV4, the IC50 stood at 32 ± 0.8 µM and the Efficacy % is recorded as less than 10%.
For the compound `CC1(C)CCC[C@]2(C)[C@@H](CCOC(=O)CCCc3cccs3)[C@](C)(O)CC[C@@H]12` [Compound 24, 2-((1R,2R,4aS,8aS)-2-hydroxy-2,5,5,8a-tetramethyldecahydronaphthalen-1-yl)ethyl 4-(thiophen-2-yl)butanoate], the half-inhibitory concentration (IC50) at hTRPV1 was greater than 100 µM. For the same compound, at rTRPV4, the IC50 is greater than 100 µM and the Efficacy % is reported as less than 10%.
